Values joined by “and” are separate entries in the source; they are usually repeats but may differ in a detail not shown here. Equal values may be shown once. Values belong to the compound of their own block, whether it stands above or below them.
How the values were obtained:
[1] = tested on: sheep; experiment: Invasive cardiac hemodynamic measurements in experimental sheep model; type: in vivo
Excerpt: An experimental sheep model, developed for invasive hemodynamic measurements under various conditions, was used to study the potentiating and synergistic effects of inosine on continuous adenosine infusion. The model is described in Tanoue et al., “Ischemic preconditioning reduces unloaded myocardial oxygen consumption in an in-vivo sheep model,” Cardiovascular Research 55: 633-641 (2002) and Xia et al., “Remote preconditioning lessens the deterioration of pulmonary function after repeated coronary artery occlusion and reperfusion,” Canadian Journal of Anesthesia 50: 481-488 (2003), the disclosures of which are incorporated herein by reference in their entireties. A total of twelve animals were studied. Briefly, the sheep were premedicated, anesthetized, intubated, and ventilated with positive pressure ventilation. Electrocardiogram (ECG) was continuously followed. The carotid artery was surgically denuded to place an arterial line for arterial blood pressure (ABP) measurement. Denuding of the jugular vein was performed to place a double or triple lumen central venous line for measurement of central venous pressure (CVP) and fluid and drug administration. A small left thoracotomy was made in the third or fourth intercostal space and the heart suspended in a pericardial cradle. A flow probe (transonic probe) was placed around the pulmonary artery and around the left circumflex coronary artery. A catheter was inserted in the pulmonary artery to determine pulmonary arterial pressure. In addition, 9 animals received a conductance catheter which was positioned in the left and right ventricle and preload-afterload variations were made by occlusion and/or constriction of the caval veins and/or pulmonary artery and/or aorta in order to study myocardial contractility. Regional blood flow measurements were also performed using a colored microsphere injection technique. Each animal served as its own control. The sequence of measurements was always the same: 1) under baseline conditions; 2) under adenosine; 3) 15 minutes stabilization, then new measurements under baseline conditions; 4) measurements under bidosine. From the first three animal experiments, it was determined that adenosine 200 μg/kg/min was the optimal single agent adenosine dose, i.e., the dose ensuring the highest coronary flow (adenosine max). Therefore, all further experiments compared this dose to the BIDOSINE formulation containing 100 μg/kg/min (that is, half adenosine max) adenosine+500 μg/kg/min inosine (A:I ratio of 1:5).

[2] = tested on: anaesthetized rats; experiment: Carotid blood flow (CaBF) in anaesthetized rats, continuous i.v. infusion; type: in vivo, rat; details: for increase in CaBF, percentage variation from baseline: 6 min continuous i.v. infusion, adenosine 0.05 mg/kg/min, inosine 0.2 mg/kg/min, alone or combined (A:I 1:4), Mean±SEM, n=6; for effect of inosine alone on CaBF: 5 min i.v. infusion
Method: The study was conducted on 7 week old male Wistar rats weighing 250-300 g. Rats were anaesthetized with Inactin 100 mg/kg i.p. Inactin was preferred to other anaesthetics because of its moderate impact on blood pressure. Heparin-filled (100 IU/ml in saline) catheters were introduced into the left common carotid artery and into the left jugular vein for measurement of blood pressure and drug administration respectively. A flow probe was inserted around the right carotid artery for measurement of carotid blood flow (CaBF).
In a first series of experiments, adenosine was administered as a single agent to identify the dose providing maximal increase in carotid arterial blood flow (“adenosine max”). In this experiment, various concentrations of adenosine were infused continuously through the jugular vein catheter for 5 minutes, with concurrent measurement of carotid arterial blood flow.
A second series of experiments was performed to assess whether inosine could potentiate the effects on CaBF of a continuous intravenous infusion of adenosine at half adenosine max.
In each experiment, the effect on CaBF of (i) adenosine as a single agent, infused continuously for five minutes at adenosine max (0.1 mg/kg/min), (ii) adenosine as single agent infused continuously for five minutes at half adenosine max (0.05 mg/kg/min), and (iii) a composition containing a fixed dose of adenosine at half adenosine max (0.05 mg/kg/min) combined with inosine infused continuously for five minutes, was assessed. In separate experiments, inosine was included in the combined (“BIDOSINE”) composition in amounts required to achieve infusion at 0.1 mg/kg/min (A:I weight ratio of 1:2, FIG. 2A), 0.15 mg/kg/min (A:I weight ratio of 1:3, FIG. 2B), 0.2 mg/kg/min (A:I weight ratio of 1:4, FIG. 2C), and 0.25 mg/kg/min (A:I weight ratio of 1:5, FIG. 2D).

[3] = tested on: male Wistar rats; experiment: Reperfusion injury after left myocardial ischemia (35 min LAD occlusion) in the rat, echocardiography; type: in vivo; parameters: EDV (end-diastolic volume), single animals / ESV (end-systolic volume), single animals / EDV (end-diastolic volume), group mean (unlabelled last line of group) / ESV (end-systolic volume), group mean (unlabelled last line of group): unit not given here; details: for EDV (end-diastolic volume), single animals / EF (ejection fraction), single animals / ESV (end-systolic volume), single animals: 60 min i.v. infusion after 35 min occlusion
[4] = cited from earlier work
[5] = Maximal solubility in nonpyrogenic fluid suitable for parenteral infusion; type: physicochemical; details: adenosine and inosine combined in a nonpyrogenic fluid suitable for parenteral infusion
Method: Combined in a nonpyrogenic, fluid suitable for parenteral infusion, maximal adenosine solubility is about 4 mg/ml and that of inosine 20 mg/ml. Concentrations approaching one or both of these maxima are convenient for unit dosage forms intended for long infusion times, since high concentrations of the nucleoside actives reduce the volume required to be infused. Typical embodiments include, for example, 250 ml containers (vials, etc.) containing 1,000 mg of adenosine with 100 mg, 1,000 mg, 2,000 mg, or even 3,000 mg, 4,000 mg, 5,000 mg, even 6,000 mg of inosine, with intermediate inosine amounts permissible.

[6] = tested on: human patients; details: cited from earlier work
[7] = tested on: male Wistar rats; experiment: Reperfusion injury after myocardial ischemia in the rat, repeated with 45 minute ischemia; type: in vivo; details: day 30 post ischemia, preliminary
Method: The experiment was repeated with 45 minute period of ischemia, and with the addition of a further BIDOSINE experimental group. The BIDOSINE composition for this additional group comprised adenosine, administered at 0.01 mg/kg/min ( 1/10 its single agent maximally effective dose) with inosine 0.20 mg/kg/min, for an A:I weight ratio of 1:20. Preliminary results (n=5 per group) of this ongoing study are given in Table 5, below, reporting day 30 post ischemia results.

[8] = tested on: sheep; experiment: Regional myocardial blood flow by colored microsphere technique in sheep; type: in vivo; details: mean of 9 experiments, after 5 minutes of adenosine or BIDOSINE
Excerpt: Regional blood flows, as well as potential changes in the distribution of coronary flow into different parts of the myocardium, were also studied. This was done by using a colored microsphere technique, essentially as described in Muller et al., “Developmental changes in cerebral autoregulatory capacity in the fetal sheep parietal cortex,” J Physiol. 539(Pt 3):957-67 (2002); Miller et al., “Physiological evidence for arteriovenous anastomoses in the uterine circulation of late-pregnant ewes,” Clin. Exp. Pharmacol. Physiol. 25(2):92-8 (1998); Herijgers et al., “Changes in organ perfusion after brain death in the rat and its relation to circulating catecholamines,” Transplantation 62: 330-335 (1996); and Wouters et al., “Ischemic event characteristics determine the extent of myocardial stunning in conscious dogs,” Basic Res. Cardiol. 91(2):140-6 (1996), the disclosures of which are incorporated herein by reference in their entireties. Briefly, colored microspheres were injected at baseline, and after 5 minutes of adenosine or BIDOSINE administration. At necropsy, tissue was digested and the number of colored microspheres per gram of wet weight in a tissue sample determined. By comparing these numbers with the number of microspheres in a reference sample drawn from the aorta at a predetermined rate, we could quantify the absolute flow rate to the tissue sample at the moment when the microspheres were injected. The statistical analysis was performed by the same methodology as for the hemodynamic parameters. Values are expressed in ml/min/g tissue (wet weight). LV=left ventricle; RV=right ventricle; endo=endocardial half; epi=epicardial half. As in Table 2, the numbers reflect the sequence of experimental conditions, as follows: 1) under baseline conditions; 2) under adenosine; 3) 15 minutes stabilization, then new measurements under baseline conditions; 4) measurements under bidosine.

[9] = tested on: rat model of spinal cord ischemia; experiment: Photothrombotic model of spinal cord ischemia in rats, behavioral studies; type: in vivo
Method: BIDOSINE administration was compared to adenosine (0.1 mg/kg/min), administered by continuous i.v. infusion from thirty to sixty minutes after the injury (n=13 in each group). As controls, a group of animals (n=11) received a 60-min IV perfusion of saline solution starting 30 min after the injury. The potential neuroprotective effect of the compound was evaluated by performing various behavioral studies. In these experiments, the photothrombotic model of ischemia was chosen over the occlusion model (aortic clamp), since it better reproduces the pathophysiology of an ischemic insult. The photothrombotic model has the advantages of (i) causing a […] processes that more perfectly mimics the pathophysiological conditions observed in clinics, and (ii) affecting a controlled volume of nervous tissue. Moreover, the location of the lesion can be restricted to precise regions (three to four […]). The injury is created using a beam of a xenon lamp conveyed by fiberoptics on the selected vertebral site. The irradiation is performed over the translucent dorsal surface of the vertebral laminae. The green light (560 nm) induces the excitation of the previously injected dye (Rose Bengal) present in the spinal cord microvasculature. […]

[10] = adenosine 200 μg/kg/min or BIDOSINE (adenosine 100 + inosine 500 μg/kg/min)
[11] = adenosine 200 μg/kg/min or BIDOSINE (adenosine 100 + inosine 500 μg/kg/min), listed as Adenosine

Systolic left ventricular pressure (LVPsys), mean [1, 10]: decreased significantly more
Systolic left ventricular pressure (LVPsys), mean [1, 11]: 59.35
solubility [5]: ~4 mg/mL
SMILES: Nc1ncnc2c1ncn2[C@@H]1O[C@H](CO)[C@@H](O)[C@H]1O [adenosine]
Cardiac output (co), mean [1, 10]: 4943
Central venous pressure (CVP), mean [1, 10]: 9.4875
Coronary flow (cf), mean [1, 10]: 129.55
Heart rate (HR), mean [1, 10]: 90.6375
Left ventricular dP/dtmax (contractility) (dpmax), mean [1, 10]: 1077.714
Left ventricular dP/dtmin (relaxation) (dpmin), mean [1, 10]: worsened significantly more
Mean arterial blood pressure (ABPm), mean [1, 10]: decreased significantly more
Mean pulmonary arterial pressure (pupm), mean [1, 10]: 16.425
Left ventricular dP/dtmin (relaxation) (dpmin), mean [1, 11]: −821.286
Mean arterial blood pressure (ABPm), mean [1, 11]: 43.2625
left ventricular relaxation constant (Tau) compared with baseline ([1]; adenosine at adenosine max or BIDOSINE A:I 1:5, ANOVA p=0.001): significantly shorter
coronary blood flow ([1]; continuous i.v. infusion, adenosine 200 μg/kg/min or BIDOSINE (100 + 500 μg/kg/min)): 129.5 cms/sec
optimal single agent adenosine dose, ensuring the highest coronary flow (adenosine max) ([1]; from the first three animal experiments): 200 µg/kg/min
adenosine dose providing maximal CaBF as a single agent (adenosine max) ([2]; 5 min continuous i.v. infusion, 0.01-1 mg/kg/min tested): 0.1 mg/kg/min
increase in CaBF, percentage variation from baseline [2]: 7±4%
EDV (end-diastolic volume), group mean (unlabelled last line of group) ([3]; Post-operative day 2): 0.40
EF (ejection fraction), group mean (unlabelled last line of group) ([3]; Post-operative day 2): 0.60
ESV (end-systolic volume), group mean (unlabelled last line of group) ([3]; Post-operative day 2): 0.16
EDV (end-diastolic volume), single animals ([3]; Post-operative day 2): 0.41 and 0.35 and 0.37 and 0.48
EF (ejection fraction), single animals ([3]; Post-operative day 2): 0.67 and 0.64 and 0.60 and 0.49
ESV (end-systolic volume), single animals ([3]; Post-operative day 2): 0.14 and 0.13 and 0.15 and 0.24
EDV (end-diastolic volume), group mean (unlabelled last line of group) ([3]; Post-operative day 30): 0.38
EF (ejection fraction), group mean (unlabelled last line of group) ([3]; Post-operative day 30): 0.59
ESV (end-systolic volume), group mean (unlabelled last line of group) ([3]; Post-operative day 30): 0.20
EDV (end-diastolic volume), single animals ([3]; Post-operative day 30): 0.44 and 0.42 and 0.33 and 0.36
EF (ejection fraction), single animals ([3]; Post-operative day 30): 0.61 and 0.32 and 0.65 and 0.44
ESV (end-systolic volume), single animals ([3]; Post-operative day 30): 0.17 and 0.29 and 0.12 and 0.20
ejection fraction ([3]; day 30, adenosine 0.1 mg/kg/min or adenosine 0.05 + inosine 0.25 mg/kg/min): 59%
half life [4]: several seconds
side effects ([6]; continuous intravenous infusion 140 μg/kg/min for 6 minutes): frequent side effects
adverse reactions ([6]; dosage of 70 μg/kg/min or less): very few and of mild intensity
left ventricular EF (LVEF) [7]: 45%
EDV ([7]; n=5 per group): 0.47
ESV ([7]; n=5 per group): 0.26
LVEF ([7]; n=5 per group): 0.45
Regional blood flow, left ventricle endocardial half (Lvendo), mean [8]: 1.763 ml/min/g tissue (wet weight)
Regional blood flow, left ventricle epicardial half (Lvepi), mean [8]: 2.039 ml/min/g tissue (wet weight)
Regional blood flow, right ventricle endocardial half (RVendo), mean [8]: 2.227 ml/min/g tissue (wet weight)
Regional blood flow, right ventricle epicardial half (RVepi), mean [8]: 1.728 ml/min/g tissue (wet weight)
Regional blood flow, left ventricle endocardial half (Lvendo), mean ([8]; listed as Adenosine): 1.764 ml/min/g tissue (wet weight)
behavioral recovery (motor, sensory and reflex scores), all tested functions ([9]; BIDOSINE 1:5 (adenosine 0.05 + inosine 0.25 mg/kg/min) or adenosine 0.1 mg/kg/min i.v. after injury, follow-up to day 10): best efficacy until day 4
gross and fine motor functional outcomes (open field, inclined plane, grid navigation) ([9]; compared to saline controls, to day 10, two way ANOVA p<0.001): Statistically significant improvements over control

solubility [5]: 20 mg/mL
SMILES: OC[C@H]1O[C@@H](n2cnc3c(O)ncnc32)[C@H](O)[C@@H]1O [inosine]
increase in CaBF, percentage variation from baseline [2]: 4±2%
effect of inosine alone on CaBF ([2]; inosine 0.3 mg/kg/min): No response
effect of inosine alone on CaBF ([2]; inosine 1 mg/kg/min (10 times adenosine max)): Modest decreases in CaBF
effect of inosine alone on CaBF ([2]; inosine between 1 to 10 mg/kg/min): sharp slump and dose-dependent decrease in CaBF
